Literature values, collected in US20220054380A1, “CANN[…] ESTERS FOR COSMETIC OR EDIBLE COMPOSITIONS” (EPM (IP), Inc., priority 2018, published 2022).

What was measured:
rats [1] = settings: compared with CBDA, 5-HT1A receptor-dependent
rats [2] = settings: compared with CBDA, 5-HT1A receptor-dependent; remark: listed apart in the source
rats [3] = settings: oral ingestion, low dose (1 mg/kg), two rat models

SMILES: C=C(C)C1CCC(C)=C[C@H]1c1c(O)cc(CCCCC)c(C(=O)OC)c1O (stereo partly drawn) [HU-580, Cannabidiolic Acid Methyl Ester]
- potency at suppressing signs of acute and anticipatory nausea (rats [1]): greater potency than CBDA
- potency at suppressing signs of stress-induced anxiety (rats [2]): greater potency than CBDA
- anti-depressant effect (rats [3]): potent anti-depressant effect
